# Experimental data from US11753407B2, “Compounds for treating spinal muscular atrophy” (PTC Therapeutics, Inc., priority 2012, dated 2023).
# How the values were obtained:
# [1] = tested on: SMN2 minigene mRNA (SMN2-A minigene) in HEK293H cells; assay: SMN2 minigene mRNA splicing RT-qPCR assay in cultured cells; type: cell-based, human; settings: for SMN2 minigene FL mRNA: HEK293H cells with SMN2 minigene, rising concentrations, 24 hr, relative to vehicle (FIG. 3); for EC (1.5-fold increase): Homo sapiens, HEK293-H, concentration increasing full length SMN2 mRNA 1.5-fold relative to vehicle-treated cells, HEK293H cells with SMN2-A minigene, 24 hours, 7-point concentration data, read-out: EC1.5x for production of full length SMN2 mRNA; for exon 7 inclusion: SMN2 minigene, relative to untreated cells (FIG. 3)
# Procedure, shortened: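 Stable SMN2-A minigene HEK293H; cpd 7-pt 3.16-fold series, 200× in DMSO, 24 h, 37 °C, n=2. Lysates → multiplex RT-qPCR (minigene FL + GAPDH), efficiency-corrected ΔΔCt vs vehicle. EC1.5× = 1.5-fold FL mRNA gain.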
# [2] = tested on: SMN2 mRNA in GM03813 SMA patient cells; assay: Endogenous SMN2 mRNA end-point semi-quantitative RT-PCR splicing assay in cultured cells; type: cell-based, human; settings: Type 1 SMA patient fibroblasts, increasing concentrations, 24 hr, end-point RT-PCR (FIG. 5)
# Experimental: The endpoint reverse transcription-PCR splicing assay is used to visualize and quantify the levels of the full length and Δ7 SMN2 mRNA in primary cells and cell lines containing the SMN2 gene treated with a test compound.
# Protocol. GM03813 SMA patient cells (5,000 cells/well) are seeded in 200 μL of cell culture medium (DMEM plus 10% FBS) in 96-well flat-bottom plates and the plate is immediately swirled to ensure proper dispersal of cells, forming an even monolayer of cells. Cells are allowed to attach for at least 4-6 hrs. Test compounds are serially diluted 3.16-fold in 100% DMSO to generate a 7-point concentration curve. A solution of test compound (1 μL, 200× in DMSO) is added to each test well and 1 μL DMSO is added to each control well. The plate is incubated for 24 hrs in a cell culture incubator (37° C., 5% CO2, 100% relative humidity). The cells are then lysed in Cells-To-Ct lysis buffer and the lysate is stored at −80° C.
# SMN FL and Δ7 mRNA are identified using the following primers in Table 6. These primers hybridize to a nucleotide sequence in exon 6 (SMN Forward C, SEQ ID NO. 11) (nucleotide 43 to nucleotide 63) and exon 8 (SMN Reverse C, SEQ ID NO. 12) (nucleotide 51 to nucleotide 73) common to human SMN1 and SMN2 mRNA. Since the SMA patient cells used in Example 4 contain only the SMN2 gene, RT-PCR can visualize and quantify only SMN2 full-length and SMN2 Δ7 mRNA.
# To synthesize cDNA, 5 μL of lysate, 4 μL of 5× iScript reaction mix, 1 μL of reverse transcriptase, and 10 μL of water are combined and incubated 5 min at 25° C. followed by 30 min at 42° C., followed by 5 min at 85° C. The cDNA solution is stored at −20° C.
# To perform endpoint PCR, 5 μL of cDNA, 0.2 μL of 100 μM forward primer, 0.2 μL of 100 μM reverse primer, and 22.5 μL of polymerase super mix are combined in a 96 well semiskirted PCR plate. PCR is carried out at the following temperatures for the indicated time: Step 1: 94° C. (2 min), Step 2: 94° C. (30 sec), Step 3: 55° C. (30 sec), Step 4: 68° C. (1 min), then repeat Steps 2 to 4 for a total of 33 cycles, then hold at 4° C.
# 10 μL of each PCR sample is electrophoretically separated on a 2% agarose E-gel for 14 minutes stained with double-stranded DNA (dsDNA) staining reagents (e.g., ethidium bromide) and visualized using a gel imager.
SMILES,SMN2 minigene FL mRNA [1],EC (1.5-fold increase) [1] [µM],exon 7 inclusion [1],SMN2 FL mRNA [2],SMN2 Δ7 mRNA [2]
"COc1ccc(-c2cc(=O)n3cc(N4CCNCC4)ccc3n2)cc1OC [Cpd 6, 2-(3,4-dimethoxyphenyl)-7-(piperazin-1-yl)-4H-pyrido[1,2-a]pyrimidin-4-one]",increased SMN2 minigene FL mRNA at low concentrations,< 0.1,fully restored exon 7 inclusion,progressively more SMN2 FL mRNA,less SMN2 Δ7 mRNA
"Cc1cn2nc(-c3cc(=O)n4cc(N5CCN(C)CC5)ccc4n3)cc2c(C)n1 [Cpd 170, 2-(4,6-dimethylpyrazolo[1,5-a]pyrazin-2-yl)-7-(4-methylpiperazin-1-yl)-4H-pyrido[1,2-a]pyrimidin-4-one]",increased SMN2 minigene FL mRNA at low concentrations,< 0.1,fully restored exon 7 inclusion,progressively more SMN2 FL mRNA,less SMN2 Δ7 mRNA
